The source of these data is patent publication US6545033B1, “Fused 1-(2,6-dichloro-4-trifluoromethylphenyl)-pyrazoles, the synthesis thereof and the use thereof as pesticides” (3-Dimensional Pharmaceuticals, Inc., priority 1999, dated 2003).

For experiment [1], the system named is cat fleas (Ctenocephalides felis), CO Fleas. The experiment can be described thus: In vivo cat flea contact assay, CO fleas. The settings on record: Ctenocephalides felis, topical; contact with treated filter disk in vial, about 24-30 hours; mM = concentration of the DMSO solution, about 1 μL applied; read-out: LD50 (mM), CO Fleas. As to the method:
This example describes an in vivo assay to screen compounds for their ability to kill cat fleas via contact.
Test compounds were dissolved in dimethylsulfoxide (DMSO) at concentrations ranging from about 0.05 mM to about 100 mM. About 1 μL of dissolved test compound was dispensed onto a 6 mm (diameter) GF/C filter disk (filter material available from Whatman Inc., Clifton, N.J.) in the bottom of a 4 mL screw-top glass vial and allowed to air dry 24-48 hours. Positive control vials were prepared in the same manner except that no test compounds were dissolved in the DMSO. About 20 newly emerged cat fleas (Ctenocephalides felis) were sedated by refrigeration at 0-4° C. and transferred to each vial. Each vial was sealed with a thin, perforated Teflon™ septum secured by an open top screw cap and held vertically in the dark. After about 24-30 hours, the healthy, moribund, and dead cat fleas in each vial were counted. The percentage of dead cat fleas in each vial was then calculated using the formula M=100(D−(FC/100))/(F−(FC/100)), in which M is the percentage of dead cat fleas due to the addition of the test compound, D is the number of dead cat fleas in the test vial, F is the total number of cat fleas in the test vial, and C is the percentage of dead cat fleas in the control vials.

For the next experiment, the target named is T1, Housefly GABA receptors (Musca domestica, UniProt Q75NA5).
T1 sequence (Q75NA5 30-576): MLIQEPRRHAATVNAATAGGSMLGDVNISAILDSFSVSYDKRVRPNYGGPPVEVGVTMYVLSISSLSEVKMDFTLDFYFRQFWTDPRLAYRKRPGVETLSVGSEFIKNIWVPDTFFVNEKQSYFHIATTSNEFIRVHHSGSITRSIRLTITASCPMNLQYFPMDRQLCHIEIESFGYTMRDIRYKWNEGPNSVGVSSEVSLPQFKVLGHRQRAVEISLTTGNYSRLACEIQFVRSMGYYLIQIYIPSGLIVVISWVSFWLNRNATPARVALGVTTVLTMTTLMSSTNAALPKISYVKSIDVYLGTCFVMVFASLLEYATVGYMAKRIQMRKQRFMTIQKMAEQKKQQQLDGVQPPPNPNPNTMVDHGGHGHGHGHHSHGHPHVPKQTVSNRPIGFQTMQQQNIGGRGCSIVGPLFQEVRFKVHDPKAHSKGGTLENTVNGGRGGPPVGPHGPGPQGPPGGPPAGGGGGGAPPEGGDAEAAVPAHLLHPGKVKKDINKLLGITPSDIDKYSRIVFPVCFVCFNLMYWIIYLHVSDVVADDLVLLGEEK
In words: In vitro assay of binding to housefly GABA receptors (3H-EBOB displacement, housefly neuronal membranes). As to conditions: for Compounds with the most activity (housefly 3H-EBOB binding): housefly neuronal membranes. As for the experimental part:
Newly emerged houseflies (Musca domestica, available from Rincon-Vitova Insectaries, Inc., Ventura, Calif.) were sedated with carbon dioxide gas, collected in 50 mL polypropylene conical tubes, and immediately frozen by submersion in liquid nitrogen. Unless specified, all of the following work was performed at 0-4° C. After removal from liquid nitrogen, the tubes of frozen houseflies were shaken vigorously by hand to decapitate the houseflies. […] Contaminating wings were removed by holding a vacuum nozzle approximately 4 cm above the heads, and contaminating legs were separated from the heads by passage through a #15 mesh screen. All remaining debris were removed from the pool of heads using forceps. The purified heads were collected in 50 mL polypropylene conical tubes and stored in liquid nitrogen until processed further.
About 13 g of purified housefly heads were suspended in about 65 mL of 10% sucrose buffer (10% sucrose (w/w) in 10 mM Tris, pH 7.5). The heads were homogenized for about 1 minute, using a Tissumizer™ homogenizer equipped with a SDT-100EN probe (available from Tekmar-Dohrmann, Cincinnati, Ohio) running at 70% of its maximum speed. The extract was further homogenized by about 5 passes through a 40 mL Dounce tissue grinder. The extract was then centrifuged at about 500×g for about 5 minutes to pellet large debris. The supernatant was collected; the pellet was washed with an additional 65 mL of 10% sucrose buffer and centrifuged at 500×g for about 5 minutes. The second supernatant was collected and combined with the first supernatant, and the pool was filtered through a 100μ CellMicroSieve™ mesh to remove residual debris (available from BioDesign of New York, Carmel, N.Y.).
Neuronal membranes containing active GABA receptors were collected via sucrose density centrifugation by the following method. About 8 mL of 35% sucrose buffer (35% sucrose (w/w) in 10 mM Tris, pH 7.5), were dispensed into each of six 38 mL ultracentrifuge tubes. These layers were overlaid with about 8 mL of 20% sucrose buffer (20% sucrose (w/w) in 10 mM Tris, pH 7.5), and finally overlaid with about 20 mL of filtered extract supernatant. The tubes were centrifuged at about 120,000×g for about 100 min at 4° C. After centrifugation, the 10% sucrose layer and most of the 20% sucrose layer were removed by aspiration. The membranes at the interface of the 20% sucrose and 35% sucrose layers were collected, pooled, diluted with 10% sucrose buffer, and centrifuged at about 120,000×g for about 40 min at 4° C. After centrifugation, the supernatant was discarded, and the pellets resuspended in about 6.5 mL of assay buffer (10 mM phosphate, 300 mM NaCl, pH 7.5) using a 10 mL Potter-Elvehjem tissue grinder with a Teflon® pestle. Protein concentration was determined by the Bio-Rad Protein Assay (available from Bio-Rad Laboratories, Hercules, Calif.) using bovine serum albumin as a standard. The membranes were aliquoted and stored in liquid nitrogen for up to 2 months before use.
Housefly neuronal membranes were prepared as described above from housefly heads. Test compounds were dissolved in dimethylsulfoxide (DMSO) at concentrations ranging from about 2 nM to about 100 mM. About 1 μL of a dissolved test compound was dispensed into a well of a 96-well polystyrene plate. About 100 μL of ice cold assay buffer (10 mM phosphate, 300 mM NaCl, pH 7.5) containing 5.2 nM 4′-Ethynyl-4-n-[2,3-^3H2]propylbicycloorthobenzoate (^3H-EBOB, 38 Ci/mmol, available from NEN Life Science Products, Boston, Mass.) was added to the well, followed by about 100 μL of ice cold assay buffer containing about 0.5-1.0 mg/mL housefly neuronal membranes. Control wells were prepared the same way except that the housefly neuronal membranes were omitted from the “negative” wells, and the test compounds were omitted from the “positive” wells. […]

A word on the IC50: it is the concentration at which inhibition is half-maximal.

For `FC(F)(F)c1cc(Cl)c(-n2cc3c(n2)CSC3)c(Cl)c1` [Compound 3, 2-[2,6-Dichloro-4-(trifluoromethyl)phenyl]-4,6-dihydrothieno-[3,4-c]pyrazole], the LC50 in experiment [1] is 1.7 mM. The “Compounds with the most activity (housefly 3H-EBOB binding)” value (“Compounds with the most activity” below) at Housefly GABA receptors is listed as “most activity”.
Take `FC(F)(F)c1cc(Cl)c(-n2cc3c(n2)CCC3)c(Cl)c1` [Compound 11, 2-[2,6-Dichloro-4-(trifluoromethyl)phenyl]-2,4,5,6-tetrahydrocyclopenta[c]pyrazole]: the LC50 in experiment [1] is 8 mM. Further, the IC50 at Housefly GABA receptors (displacement of 5.2 nM 3H-EBOB, housefly head neuronal membranes, about 45 min at about 24° C., read-out: IC50 (nM), Fly Head) came out at 83 nM. Also, the “Compounds with the most activity” value at Housefly GABA receptors is “most activity”.
`FC(F)(F)c1cc(Cl)c(-n2cc3c(n2)CCCCC3)c(Cl)c1` [Compound 15, 2-[2,6-Dichloro-4-(trifluoromethyl)phenyl]-2,4,5,6,7,8-hexahydrocyclohepta[c]pyrazole]: in experiment [1], the LC50 came to 29.5 mM. Moreover, the “Compounds with the most activity” value at Housefly GABA receptors is reported as “most activity”.
